Data from patent US20220324835A1 (Nurix Therapeutics, Inc., priority 2018, published 2022).

Columns and labels:
T-cell [1] = test: IL-2 secretion from T-cells co-stimulated with anti-CD3 and anti-CD28 antibody (Biological Example 2); format: cell-based, human; conditions: Homo sapiens, T-cell, primary human total T-cells
In short: (§1)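 Values are fold-change over baseline: readings (IL-2 release, CD25 staining) from inhibitor-treated T-cells divided against untreated cells […]. No detailed procedure stated.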

T-cell [2] = test: CD25 cell surface staining on T-cells co-stimulated with anti-CD3 and anti-CD28 antibody (Biological Example 2); format: cell-based, human; conditions: Homo sapiens, T-cell, primary human total T-cells
In short: as §1

T-cell [3] = test: CD25 cell surface staining on T-cells stimulated with anti-CD3 antibody alone (Biological Example 2); format: cell-based, human; conditions: T-cell, fold change over baseline, primary human total T-cells, read-out: CD25 staining Anti-CD3 stimulation; for fold induction at 1 µM: 1 μM Cbl-b inhibitor; for fold induction at 8 µM: 8 μM Cbl-b inhibitor
Cbl-b = Cbl-b (Homo sapiens, UniProt Q13191); test: Cbl-b activity assay (Cbl-b inhibition assay), TR-FRET of Cbl-b interaction with UbcH5B-Ub; format: biochemical; conditions: assay buffer with 100 mM NaCl, 60 nM Src kinase; read-out: Cbl-b activity IC50
In short: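 Compound-treated Cbl-b was incubated 1.5 h with Src kinase (60 nM final; 30 nM for asterisked values, which also used 50 mM instead of 100 mM NaCl), 1 mM ATP and 5 mM MgCl2. Binding to fluorescent Ub-loaded UbcH5B (C85K mutant) was then read by TR-FRET after 1 h more.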

[4] = system: human T-cells with allogenic immature dendritic cells; test: Allogenic mixed lymphocyte reaction (MLR), T-cell proliferation; format: cell-based; conditions: 120 h, 5 days, baseline T-cells without Cbl-b inhibitor, read-out: Proliferation, fold change over baseline
In short: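 CFSE-labelled primary human T-cells, preincubated with Cbl-b inhibitor, stimulated by allogenic immature dendritic cells derived from monocytes with GM-CSF (30 ng/mL) and IL-4 (20 ng/mL) over 7 days. Proliferation by flow cytometry, expressed as fold over inhibitor-free baseline; >2-fold counted positive.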

[5] = fold change over baseline, 0.3 μM Cbl-b inhibitor, read-out: IL-2 secretion Anti-CD3/Anti-CD28 stimulation
[6] = fold change over baseline, 1 μM Cbl-b inhibitor, read-out: IL-2 secretion Anti-CD3/Anti-CD28 stimulation
[7] = fold change over baseline, 4 μM Cbl-b inhibitor, read-out: IL-2 secretion Anti-CD3/Anti-CD28 stimulation
[8] = fold change over baseline, 0.3 μM Cbl-b inhibitor, read-out: CD25 staining Anti-CD3/Anti-CD28 stimulation
[9] = fold change over baseline, 1 μM Cbl-b inhibitor, read-out: CD25 staining Anti-CD3/Anti-CD28 stimulation
[10] = fold change over baseline, 4 μM Cbl-b inhibitor, read-out: CD25 staining Anti-CD3/Anti-CD28 stimulation
[11] = 0.3 μM compound, baseline = anti-CD3/anti-CD28 stimulated cells without inhibitor, read-out: IL-2 secretion, Anti-CD3/Anti-CD28 stimulation, fold change over baseline
[12] = 1 μM compound, baseline = anti-CD3/anti-CD28 stimulated cells without inhibitor, read-out: IL-2 secretion, Anti-CD3/Anti-CD28 stimulation, fold change over baseline
[13] = 4 μM compound, baseline = anti-CD3/anti-CD28 stimulated cells without inhibitor, read-out: IL-2 secretion, Anti-CD3/Anti-CD28 stimulation, fold change over baseline
[14] = 0.3 μM compound, baseline = anti-CD3/anti-CD28 stimulated cells without inhibitor, read-out: CD25 staining, Anti-CD3/Anti-CD28 stimulation, fold change over baseline
[15] = 1 μM compound, baseline = anti-CD3/anti-CD28 stimulated cells without inhibitor, read-out: CD25 staining, Anti-CD3/Anti-CD28 stimulation, fold change over baseline
[16] = 4 μM compound, baseline = anti-CD3/anti-CD28 stimulated cells without inhibitor, read-out: CD25 staining, Anti-CD3/Anti-CD28 stimulation, fold change over baseline

Sequence of Cbl-b (Q13191 36-427): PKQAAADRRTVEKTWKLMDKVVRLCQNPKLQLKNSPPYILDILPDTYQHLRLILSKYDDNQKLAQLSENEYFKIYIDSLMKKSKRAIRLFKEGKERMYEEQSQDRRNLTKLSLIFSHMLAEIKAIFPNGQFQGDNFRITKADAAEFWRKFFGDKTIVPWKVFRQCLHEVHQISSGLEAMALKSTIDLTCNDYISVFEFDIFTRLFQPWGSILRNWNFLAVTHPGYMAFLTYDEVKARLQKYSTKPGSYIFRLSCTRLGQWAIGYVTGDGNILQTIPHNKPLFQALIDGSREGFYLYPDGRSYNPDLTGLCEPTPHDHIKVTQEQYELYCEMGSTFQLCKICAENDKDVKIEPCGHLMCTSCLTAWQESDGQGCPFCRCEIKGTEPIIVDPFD

| Structure (SMILES) | fold induction at 0.3 µM (T-cell [1]; [5]) | fold induction at 1 µM (T-cell [1]; [6]) | fold induction at 4 µM (T-cell [1]; [7]) | fold induction at 0.3 µM (T-cell [2]; [8]) | fold induction at 1 µM (T-cell [2]; [9]) | fold induction at 4 µM (T-cell [2]; [10]) | fold induction at 1 µM (T-cell [3]) | fold induction at 8 µM (T-cell [3]) | IC50 (Cbl-b) | fold induction at 3 µM [4] | fold induction at 10 µM [4] | fold induction at 0.3 µM (T-cell [1]; [11]) | fold induction at 1 µM (T-cell [1]; [12]) | fold induction at 4 µM (T-cell [1]; [13]) | fold induction at 0.3 µM (T-cell [2]; [14]) | fold induction at 1 µM (T-cell [2]; [15]) | fold induction at 4 µM (T-cell [2]; [16]) |
| --- | --- | --- | --- | --- | --- | --- | --- | --- | --- | --- | --- | --- | --- | --- | --- | --- | --- |
| C[C@H](Cc1nncn1C)c1cccc(NC(=O)c2nc(C(F)(F)F)c[nH]2)c1 [Compound 326, (R)-N-(3-(1-(4-methyl-4H-1,2,4-triazol-3-yl)propan-2-yl)phenyl)-4-(trifluoromethyl)-1H-imidazole-2-carboxamide] | 1.01 to 2.5 | 2.51 to 5 | 2.51 to 5 | 1.01 to 1.3 | 1.01 to 1.3 | 1.01 to 1.3 | 0.801 to 1 | > 1 | 100 to 300 nM | < 2 | < 2 | – | – | – | – | – | – |
| CNCc1ccc(C(=O)Nc2cccc([C@H](C)Cc3nncn3C)c2)nc1C1CC1 [Compound 376, (R)-6-cyclopropyl-N-(3-(1-(4-methyl-4H-1,2,4-triazol-3-yl)propan-2-yl)phenyl)-5-((methylamino)methyl)picolinamide] | – | – | – | – | – | – | – | – | 100 to 300 nM | < 2 | < 2 | 1.01 to 2.5 | 2.51 to 5 | > 7.5 | 1.01 to 1.3 | 1.31 to 1.5 | 1.51 to 1.75 |
| C[C@H](Cc1nncn1C)c1ccnc(NC(=O)c2cccc(C(F)(F)F)n2)c1 [Compound 302, (R)-N-(4-(1-(4-methyl-4H-1,2,4-triazol-3-yl)propan-2-yl)pyridin-2-yl)-6-(trifluoromethyl)picolinamide] | 2.51 to 5 | 2.51 to 5 | > 7.5 | 1.01 to 1.3 | 1.01 to 1.3 | 1.01 to 1.3 | < 0.6 | 0.801 to 1 | 301 to 1000 nM | < 2 | < 2 | – | – | – | – | – | – |
| Cn1cnnc1[C@@H]1C[C@@H]1c1cccc(N2Cc3c(cccc3C(F)(F)F)C2=O)c1 [Compound 282, 2-(3-((1S,2R)-2-(4-methyl-4H-1,2,4-triazol-3-yl)cyclopropyl)phenyl)-4-(trifluoromethyl)isoindolin-1-one] | < 1 | 1.01 to 2.5 | 2.51 to 5 | > 1.76 | > 1.76 | > 1.76 | 0.601 to 0.8 | > 1 | 301 to 1000 nM | < 2 | < 2 | – | – | – | – | – | – |
| C[C@H](Cc1nncn1C)c1cccc(N2Cc3c(ccnc3C3CC3)C2=O)c1 [Compound 257, 4-cyclopropyl-2-[3-[(1R)-1-methyl-2-(4-methyl-1,2,4-triazol-3-yl)ethyl]phenyl]-3H-pyrrolo[3,4-c]pyridin-1-one] | 1.01 to 2.5 | 1.01 to 2.5 | 1.01 to 2.5 | 1.01 to 1.3 | 1.01 to 1.3 | 1.31 to 1.5 | 0.601 to 0.8 | > 1 | 100 to 300 nM | < 2 | < 2 | – | – | – | – | – | – |
| Cc1cc2c(c(C3CC3)n1)CN(c1cccc([C@H](C)Cc3nncn3C)c1)C2=O [Compound 372, 4-cyclopropyl-6-methyl-2-{3-[(2R)-1-(4-methyl-4H-1,2,4-triazol-3-yl)propan-2-yl]phenyl}-1H,2H,3H-pyrrolo[3,4-c]pyridin-1-one] | – | – | – | – | – | – | – | – | 301 to 1000 nM | < 2 | < 2 | 1.01 to 2.5 | 1.01 to 2.5 | 2.51 to 5 | 1.01 to 1.3 | 1.01 to 1.3 | 1.01 to 1.3 |
| Cn1cnnc1[C@@H]1C[C@@H]1c1cccc(N2Cc3c(ccnc3C(F)(F)F)C2=O)c1 [Compound 369, 2-{3-[(1S,2R)-2-(4-methyl-4H-1,2,4-triazol-3-yl)cyclopropyl]phenyl}-4-(trifluoromethyl)-1H,2H,3H-pyrrolo[3,4-c]pyridin-1-one] | – | – | – | – | – | – | – | – | 301 to 1000 nM | < 2 | < 2 | 1.01 to 2.5 | 1.01 to 2.5 | 1.01 to 2.5 | 1.01 to 1.3 | 1.01 to 1.3 | 1.01 to 1.3 |
| C[C@H](Sc1nncn1C)c1cccc(NC(=O)c2cc(C(=O)N3CC[C@H](O)C3)ccn2)c1 [Compound 140, 4-[[(3S)-3-hydroxypyrrolidin-1-yl]carbonyl]-N-[3-[(1S)-1-[(4-methyl-4H-1,2,4-triazol-3-yl)sulfanyl]ethyl]phenyl]pyridine-2-carboxamide] | < 1 | < 1 | < 1 | 1.01 to 1.3 | 1.01 to 1.3 | 1.01 to 1.3 | 0.601 to 0.8 | 0.801 to 1 | 100 to 300 nM | < 2 | < 2 | – | – | – | – | – | – |
| C[C@H](Cc1nncn1C)c1cccc(NC(=O)c2cccc(CCO)n2)c1 [Compound 202, 6-(2-hydroxyethyl)-N-[3-[(2R)-1-(4-methyl-4H-1,2,4-triazol-3-yl)propan-2-yl]phenyl]pyridine-2-carboxamide] | 1.01 to 2.5 | 1.01 to 2.5 | 2.51 to 5 | 1.01 to 1.3 | 1.01 to 1.3 | 1.31 to 1.5 | < 0.6 | 0.801 to 1 | 301 to 1000 nM | < 2 | < 2 | – | – | – | – | – | – |
